The results in this text go back to patent publication US10285989B2, “Pyrimidinone amide compounds as PDE2 inhibitors” (Merck Sharp & Dohme Corp., priority 2015, dated 2019).

One series deals with Rhesus PDE2A3 (Macaca mulatta, UniProt B3VTJ2). In words: PDE2 fluorescence polarization (IMAP FP) inhibition assay, rhesus PDE2A3. The series is classed as biochemical, rhesus macaque. (In general: Polarisation of emitted light reports the rotation of a fluorescent probe.)
In another series the target is P-glycoprotein (P-gp) (Homo sapiens (Human), UniProt P08183). Put plainly: P-gp transport, experimental BA/AB ratio, human. The series is classed as in vitro ADME. Conditions: LLC-PK1, 1 μM substrate concentration. An excerpt: (§1) See Doan et al. “Passive permeability and P-glycoprotein-mediated efflux differentiate central nervous system (CNS) and non-CNS marketed drugs”, J. Pharm. Exper. […] Desirable human BA/AB ratio is less than 2.0. […] See, for example, Desai, et al. Integration of in Silico and in Vitro Tools for Scaffold Optimization during Drug Discovery: Predicting P-glycoprotein Efflux” Mol. Pharmac.

Series [1] addresses P-glycoprotein (P-gp, rat Mdr1a) (Rattus norvegicus, UniProt Q6PSM0). Put plainly: P-gp transport, experimental BA/AB ratio, rat LLC-Mdr1a. The series is classed as in vitro ADME. Conditions: LLC-PK1; rat LLC-Mdrla; 1 μM substrate concentration.
Source text: as §1

Another series addresses human PDE2A1 (Homo sapiens (Human), UniProt O00408). In words: PDE2 IMAP FP inhibition assay, human PDE2A1 (selectivity panel format). The series is classed as biochemical. An outline of the steps:
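Enzyme dosed to give about 20% substrate turnover acts for 60 min at room temperature on 50 nM FAM-cAMP plus 1000 nM cGMP (Tris pH 7.2, MgCl2, DTT, Tween-20 buffer). IMAP binding solution then stops the reaction; after 1 h, polarization is measured from parallel and perpendicular fluorescence.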

Where [2] appears, read: Lab B, read-out: Rhesus PDE2 Ki (nM) - Lab B.
Setting [3] is: Lab B, read-out: Human PDE2 Ki (nM) - Lab B.
Setting [4] is: Lab A, read-out: Rhesus PDE2 Ki (nM) - Lab A.
The mark [5] stands for this setting: Lab A, read-out: Human PDE2 Ki (nM) - Lab A.

Where two headings read alike, the source gives them in different places. Where only a bound is given, the exact number is not on record here.

Chain of P-glycoprotein (P-gp, rat Mdr1a) (Q6PSM0 1-1272): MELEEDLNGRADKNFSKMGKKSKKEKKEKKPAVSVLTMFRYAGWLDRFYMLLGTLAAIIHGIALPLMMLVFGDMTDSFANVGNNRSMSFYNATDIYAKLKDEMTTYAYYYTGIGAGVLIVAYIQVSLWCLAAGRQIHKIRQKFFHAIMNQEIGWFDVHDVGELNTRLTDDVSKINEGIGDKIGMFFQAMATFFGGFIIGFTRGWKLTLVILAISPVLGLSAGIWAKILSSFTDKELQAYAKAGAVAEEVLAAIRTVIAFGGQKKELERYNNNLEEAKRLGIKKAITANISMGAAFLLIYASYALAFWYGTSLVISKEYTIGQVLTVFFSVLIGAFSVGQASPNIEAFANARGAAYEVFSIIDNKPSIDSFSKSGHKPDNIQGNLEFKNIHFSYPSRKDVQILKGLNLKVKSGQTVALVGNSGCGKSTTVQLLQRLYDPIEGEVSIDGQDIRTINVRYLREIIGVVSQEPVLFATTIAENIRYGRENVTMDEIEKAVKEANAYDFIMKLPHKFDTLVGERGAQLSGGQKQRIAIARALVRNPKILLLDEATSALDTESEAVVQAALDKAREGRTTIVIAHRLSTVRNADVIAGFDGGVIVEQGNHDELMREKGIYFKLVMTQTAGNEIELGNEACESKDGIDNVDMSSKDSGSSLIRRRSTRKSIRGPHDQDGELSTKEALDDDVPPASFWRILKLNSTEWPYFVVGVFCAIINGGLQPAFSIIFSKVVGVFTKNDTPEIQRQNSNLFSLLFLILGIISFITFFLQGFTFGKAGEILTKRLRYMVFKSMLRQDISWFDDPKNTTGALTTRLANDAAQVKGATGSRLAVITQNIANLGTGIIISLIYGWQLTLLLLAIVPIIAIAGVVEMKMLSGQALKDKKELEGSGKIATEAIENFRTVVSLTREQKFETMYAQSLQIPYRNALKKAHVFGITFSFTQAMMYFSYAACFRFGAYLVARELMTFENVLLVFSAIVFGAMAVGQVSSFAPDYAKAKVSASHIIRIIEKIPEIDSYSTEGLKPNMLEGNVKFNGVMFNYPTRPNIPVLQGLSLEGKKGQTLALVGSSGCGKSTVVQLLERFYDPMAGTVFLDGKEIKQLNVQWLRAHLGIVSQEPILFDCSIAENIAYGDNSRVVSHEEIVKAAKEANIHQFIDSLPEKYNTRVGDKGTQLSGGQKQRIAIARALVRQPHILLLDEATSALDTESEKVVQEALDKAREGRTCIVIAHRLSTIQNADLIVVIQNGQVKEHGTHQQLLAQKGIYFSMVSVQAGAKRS
Chain of P-glycoprotein (P-gp) (P08183 whole entry): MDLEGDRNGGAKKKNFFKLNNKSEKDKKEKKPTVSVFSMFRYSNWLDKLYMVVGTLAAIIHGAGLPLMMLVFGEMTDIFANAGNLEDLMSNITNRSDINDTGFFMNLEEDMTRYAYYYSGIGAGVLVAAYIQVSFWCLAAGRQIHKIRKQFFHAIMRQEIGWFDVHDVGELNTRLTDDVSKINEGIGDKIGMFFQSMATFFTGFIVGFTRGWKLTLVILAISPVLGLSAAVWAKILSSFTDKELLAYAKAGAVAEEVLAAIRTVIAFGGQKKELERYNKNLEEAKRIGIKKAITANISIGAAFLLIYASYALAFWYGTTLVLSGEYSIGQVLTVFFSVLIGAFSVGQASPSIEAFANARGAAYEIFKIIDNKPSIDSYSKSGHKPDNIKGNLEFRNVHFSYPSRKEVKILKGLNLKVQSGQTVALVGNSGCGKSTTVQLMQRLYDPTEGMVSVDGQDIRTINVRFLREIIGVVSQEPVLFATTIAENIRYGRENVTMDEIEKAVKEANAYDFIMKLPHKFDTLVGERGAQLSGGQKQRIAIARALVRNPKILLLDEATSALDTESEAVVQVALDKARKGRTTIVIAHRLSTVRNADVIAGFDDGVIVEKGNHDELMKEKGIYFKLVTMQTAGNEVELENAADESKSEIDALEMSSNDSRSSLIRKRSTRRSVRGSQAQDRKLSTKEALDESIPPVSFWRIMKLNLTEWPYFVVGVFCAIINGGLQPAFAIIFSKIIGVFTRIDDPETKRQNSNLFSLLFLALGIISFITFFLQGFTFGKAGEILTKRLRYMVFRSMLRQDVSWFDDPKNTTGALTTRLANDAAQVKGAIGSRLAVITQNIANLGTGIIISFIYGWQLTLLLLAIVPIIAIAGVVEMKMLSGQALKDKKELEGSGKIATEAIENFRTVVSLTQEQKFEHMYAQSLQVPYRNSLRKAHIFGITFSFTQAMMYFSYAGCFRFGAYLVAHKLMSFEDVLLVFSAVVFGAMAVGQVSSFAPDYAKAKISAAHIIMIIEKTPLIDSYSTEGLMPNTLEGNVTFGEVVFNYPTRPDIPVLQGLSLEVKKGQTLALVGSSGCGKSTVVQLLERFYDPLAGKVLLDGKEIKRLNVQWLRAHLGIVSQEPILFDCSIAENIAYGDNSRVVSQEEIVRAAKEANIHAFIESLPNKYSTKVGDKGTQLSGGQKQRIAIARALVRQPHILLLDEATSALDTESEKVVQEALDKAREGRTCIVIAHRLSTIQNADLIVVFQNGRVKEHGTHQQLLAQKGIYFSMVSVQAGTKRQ
Chain of Rhesus PDE2A3 (B3VTJ2 1-941): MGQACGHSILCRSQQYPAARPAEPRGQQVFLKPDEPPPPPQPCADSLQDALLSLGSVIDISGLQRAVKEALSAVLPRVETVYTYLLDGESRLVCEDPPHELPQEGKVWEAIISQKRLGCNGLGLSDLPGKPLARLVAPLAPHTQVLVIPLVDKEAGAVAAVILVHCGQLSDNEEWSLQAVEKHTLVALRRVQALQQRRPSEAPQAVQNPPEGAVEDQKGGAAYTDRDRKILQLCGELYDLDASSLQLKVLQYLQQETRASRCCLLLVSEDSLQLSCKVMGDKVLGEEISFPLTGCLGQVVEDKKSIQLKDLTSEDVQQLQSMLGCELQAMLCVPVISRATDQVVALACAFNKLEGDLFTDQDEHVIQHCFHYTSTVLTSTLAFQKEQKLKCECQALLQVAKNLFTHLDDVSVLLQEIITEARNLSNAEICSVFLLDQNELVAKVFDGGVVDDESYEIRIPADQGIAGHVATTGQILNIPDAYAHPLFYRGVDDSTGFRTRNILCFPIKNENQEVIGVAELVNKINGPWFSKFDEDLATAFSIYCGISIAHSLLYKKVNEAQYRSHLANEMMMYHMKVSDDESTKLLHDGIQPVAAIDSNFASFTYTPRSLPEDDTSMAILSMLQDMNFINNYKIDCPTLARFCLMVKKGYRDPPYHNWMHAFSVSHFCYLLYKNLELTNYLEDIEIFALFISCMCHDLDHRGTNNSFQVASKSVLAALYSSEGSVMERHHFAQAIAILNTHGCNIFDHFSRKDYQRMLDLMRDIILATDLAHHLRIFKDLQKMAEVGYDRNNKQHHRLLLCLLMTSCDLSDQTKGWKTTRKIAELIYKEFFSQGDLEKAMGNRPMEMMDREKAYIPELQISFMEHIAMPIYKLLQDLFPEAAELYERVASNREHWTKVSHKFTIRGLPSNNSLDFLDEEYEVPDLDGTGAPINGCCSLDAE
Chain of human PDE2A1 (O00408 other isoform, or with tags, fused parts or gaps): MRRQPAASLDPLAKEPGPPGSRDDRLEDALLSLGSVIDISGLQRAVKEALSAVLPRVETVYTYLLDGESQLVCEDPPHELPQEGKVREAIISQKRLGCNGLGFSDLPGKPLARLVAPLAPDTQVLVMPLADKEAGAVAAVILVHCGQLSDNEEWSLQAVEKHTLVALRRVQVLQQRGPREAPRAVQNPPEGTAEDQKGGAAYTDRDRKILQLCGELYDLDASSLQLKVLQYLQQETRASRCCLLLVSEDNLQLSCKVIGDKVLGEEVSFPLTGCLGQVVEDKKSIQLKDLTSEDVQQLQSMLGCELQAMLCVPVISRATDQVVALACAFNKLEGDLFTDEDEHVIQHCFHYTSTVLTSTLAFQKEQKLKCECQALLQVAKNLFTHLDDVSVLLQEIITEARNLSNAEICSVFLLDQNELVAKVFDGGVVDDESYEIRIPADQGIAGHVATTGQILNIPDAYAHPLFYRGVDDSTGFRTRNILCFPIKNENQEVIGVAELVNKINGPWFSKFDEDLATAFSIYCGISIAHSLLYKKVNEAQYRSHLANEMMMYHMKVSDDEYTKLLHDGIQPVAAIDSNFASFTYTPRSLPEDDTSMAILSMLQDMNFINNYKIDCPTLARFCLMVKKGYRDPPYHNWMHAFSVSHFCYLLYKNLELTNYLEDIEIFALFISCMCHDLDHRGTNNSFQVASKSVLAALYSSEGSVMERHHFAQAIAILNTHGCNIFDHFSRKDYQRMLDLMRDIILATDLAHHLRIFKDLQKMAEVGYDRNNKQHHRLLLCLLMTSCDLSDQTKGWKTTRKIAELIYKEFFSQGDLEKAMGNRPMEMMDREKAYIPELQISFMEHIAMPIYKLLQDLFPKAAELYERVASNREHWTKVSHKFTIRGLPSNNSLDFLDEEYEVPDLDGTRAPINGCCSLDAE

Turning to `CC(C)[C@@H](NC(=O)c1cc(=O)[nH]c(N2CC[C@H](F)C2)n1)c1ccc(C(F)(F)F)c(F)c1` [Example 168, 2-[(3S)-3-fluoropyrrolidin-1-yl]-N-{(1R)-1-[3-fluoro-4-(trifluoromethyl)phenyl]-2-methylpropyl}-6-oxo-1,6-dihydropyrimidine-4-carboxamide], the results for the Ki at Rhesus PDE2A3 (setting [2]) and on human PDE2A1 (setting [3]) were 0.5 nM and 0.47 nM, respectively. Further, the values for the efflux ratio at 1 μM (on P-glycoprotein (P-gp); in series [1]) were 4.1 and 21.2, respectively.

In the case of `CC(C)[C@@H](NC(=O)c1cc(=O)[nH]c(N(C)C)n1)c1ccc(SC(F)(F)F)cc1` [Example 30, 2-(dimethylamino)-N-[(1R)-2-methyl-1-{4-[(trifluoromethyl)sulfanyl]phenyl}propyl]-6-oxo-1,6-dihydropyrimidine-4-carboxamide], the Ki (in general, the dissociation constant of the complex between target and ligand, obtained from inhibition or displacement) on Rhesus PDE2A3 (setting [4]) was 0.19 nM; on Rhesus PDE2A3 (setting [2]) it was 0.22 nM; on human PDE2A1 (setting [5]), at most 5.1 nM; at human PDE2A1 (setting [3]) it was 0.37 nM. The efflux ratio (in general, the permeability from basolateral to apical divided by that in the opposite direction, in the common usage) at 1 μM was found to be 0.4 at P-glycoprotein (P-gp) and 2.6 in series [1].

Take `CN(C)c1nc(C(=O)N[C@@H](c2ccc(C(F)F)c(F)c2)C(C)(C)C)cc(=O)[nH]1` [Example 62, N-{(1R)-1-[4-(difluoromethyl)-3-fluorophenyl]-2,2-dimethylpropyl}-2-(dimethylamino)-6-oxo-1,6-dihydropyrimidine-4-carboxamide]: the Ki at Rhesus PDE2A3 (setting [2]) turned out to be 0.55 nM; at human PDE2A1 (setting [3]), 0.52 nM. Also, the values for the efflux ratio at 1 μM (at P-glycoprotein (P-gp); in series [1]) were 1.2 and 5.2, respectively.

For `CN(C)c1nc(C(=O)N[C@@H](c2ccc(SC(F)(F)F)cc2)C2CC2)cc(=O)[nH]1` [Example 111, N-[(R)-cyclopropyl{4-[(trifluoromethyl)sulfanyl]phenyl}methyl]-2-(dimethylamino)-6-oxo-1,6-dihydropyrimidine-4-carboxamide], the results for the inhibition constant (Ki) at Rhesus PDE2A3 (setting [4]), on Rhesus PDE2A3 (setting [2]) and at human PDE2A1 (setting [3]) were 0.41 nM, 0.8 nM and 0.9 nM, respectively. For the same compound, the figures for the efflux ratio at 1 μM (on P-glycoprotein (P-gp); in series [1]) were 0.3 and 2, respectively.

With `CN(C)c1nc(C(=O)NC2(c3ccc(SC(F)(F)F)cc3)CC2)cc(=O)[nH]1` [Example 92, 2-(dimethylamino)-6-oxo-N-(1-{4-[(trifluoromethyl)sulfanyl]phenyl}cyclopropyl)-1,6-dihydropyrimidine-4-carboxamide], the Ki came to 2.5 nM at Rhesus PDE2A3 (setting [4]) and 1.8 nM on human PDE2A1 (setting [5]). In addition, the efflux ratio at 1 μM stood at 0.4 on P-glycoprotein (P-gp) and 1.7 in series [1].

As to `CC(C)[C@@H](NC(=O)c1cc(=O)[nH]c(N2CCCC2)n1)c1ccc(SC(F)(F)F)cc1` [Example 147, N-[(1R)-2-methyl-1-{4-[(trifluoromethyl)sulfanyl]phenyl}propyl]-6-oxo-2-pyrrolidin-1-yl-1,6-dihydropyrimidine-4-carboxamide], the Ki was determined as 0.19 nM on Rhesus PDE2A3 (setting [4]), 0.15 nM on Rhesus PDE2A3 (setting [2]) and 0.26 nM on human PDE2A1 (setting [3]). Further, the efflux ratio at 1 μM on P-glycoprotein (P-gp) was determined as 0.7; in series [1] it was 5.9.

Consider `C[C@@H](NC(=O)c1cc(=O)[nH]c(N2Cc3ccncc3C2)n1)c1ccc(C(F)(F)F)cc1` [Example 160, 2-(1,3-dihydro-2H-pyrrolo[3,4-c]pyridin-2-yl)-6-oxo-N-{(1R)-1-[4-(trifluoromethyl)phenyl]ethyl}-1,6-dihydropyrimidine-4-carboxamide], for which the values for the Ki on Rhesus PDE2A3 (setting [4]) and at human PDE2A1 (setting [5]) were 1.6 nM and 1 nM, respectively. Further, the efflux ratio at 1 μM amounted to 17.1 on P-glycoprotein (P-gp) and 28.8 in series [1].

With `CC(C)[C@@H](NC(=O)c1cc(=O)[nH]c(N2CCCC2)n1)c1ccc(C(F)(F)F)cc1` [Example 95, N-{(1R)-2-methyl-1-[4-(trifluoromethyl)phenyl]propyl}-6-oxo-2-pyrrolidin-1-yl-1,6-dihydropyrimidine-4-carboxamide], the inhibitory constant (Ki) was 0.39 nM at Rhesus PDE2A3 (setting [4]) and 0.18 nM on human PDE2A1 (setting [5]). Moreover, the values for the efflux ratio at 1 μM (at P-glycoprotein (P-gp); in series [1]) were 1 and 4.5, respectively.

For the compound `CC[C@@H](NC(=O)c1cc(=O)[nH]c(N(C)C)n1)c1ccc(S(F)(F)(F)(F)F)cc1` [Example 5, (R)-2-(dimethylamino)-6-oxo-N-(1-(4-(pentafluoro-λ^6-sulfanyl)phenyl)propyl)-1,6-dihydropyrimidine-4-carboxamide], the Ki on Rhesus PDE2A3 (setting [4]) was determined as 0.69 nM; on Rhesus PDE2A3 (setting [2]), 1.5 nM; at human PDE2A1 (setting [3]) it was 1.3 nM. Moreover, the values for the efflux ratio at 1 μM (at P-glycoprotein (P-gp); in series [1]) were 0.5 and 3.6, respectively.

`C[C@@H](NC(=O)c1cc(=O)[nH]c(N2CCC2)n1)c1ccc(C(F)(F)F)cc1` [Example 10, (R)-2-(azetidin-1-yl)-6-oxo-N-(1-(4-(trifluoromethyl)phenyl)ethyl)-1,6-dihydropyrimidine-4-carboxamide]: the Ki on Rhesus PDE2A3 (setting [4]) came out at 8.5 nM; on human PDE2A1 (setting [5]), 8.2 nM. Moreover, the results for the efflux ratio at 1 μM (on P-glycoprotein (P-gp); in series [1]) were 0.5 and 3.1, respectively.

`CNc1nc(C(=O)N[C@@H](c2ccc(SC(F)(F)F)c(F)c2)C(C)C)cc(=O)[nH]1` [Example 155, N-[(1R)-1-{3-fluoro-4-[(trifluoromethyl)sulfanyl]phenyl}-2-methylpropyl]-2-(methylamino)-6-oxo-1,6-dihydropyrimidine-4-carboxamide]: the results for the inhibition constant (Ki) at Rhesus PDE2A3 (setting [4]) and at human PDE2A1 (setting [5]) were 4.3 nM and 1.2 nM, respectively. The efflux ratio at 1 μM at P-glycoprotein (P-gp) amounted to 4.2; in series [1], 9.

As for `CC[C@@H](NC(=O)c1cc(=O)[nH]c(N(C)C)n1)c1ccc(SC(F)(F)F)cc1` [Example 88, 2-(dimethylamino)-6-oxo-N-[(1R)-1-{4-[(trifluoromethyl)sulfanyl]phenyl}propyl]-1,6-dihydropyrimidine-4-carboxamide], the inhibitory constant (Ki) at Rhesus PDE2A3 (setting [4]) worked out at 0.61 nM; on Rhesus PDE2A3 (setting [2]), 0.51 nM; at human PDE2A1 (setting [5]) it was 5.05 nM; on human PDE2A1 (setting [3]), 0.69 nM. The efflux ratio at 1 μM turned out to be 0.3 on P-glycoprotein (P-gp) and 1.8 in series [1].

With `CN(C)c1nc(C(=O)N[C@@H](c2ccc(OC(F)F)c(F)c2)C(C)(C)C)cc(=O)[nH]1` [Example 54, N-{(1R)-1-[4-(difluoromethoxy)-3-fluorophenyl]-2,2-dimethylpropyl}-2-(dimethylamino)-6-oxo-1,6-dihydropyrimidine-4-carboxamide], the inhibition constant Ki is 0.32 nM on Rhesus PDE2A3 (setting [2]) and 0.38 nM at human PDE2A1 (setting [3]). Further, the efflux ratio at 1 μM on P-glycoprotein (P-gp) was determined as 1.4; in series [1] it was 4.8.

Take `CN(C)c1nc(C(=O)N[C@@H](c2ccc(C(F)F)cc2F)C(C)(C)C)cc(=O)[nH]1` [Example 73, N-{(1R)-1-[4-(difluoromethyl)-2-fluorophenyl]-2,2-dimethylpropyl}-2-(dimethylamino)-6-oxo-1,6-dihydropyrimidine-4-carboxamide]: the Ki on Rhesus PDE2A3 (setting [2]) was 0.26 nM; at human PDE2A1 (setting [3]) it was 0.17 nM. Besides, the values for the efflux ratio at 1 μM (on P-glycoprotein (P-gp); in series [1]) were 1.2 and 6.9, respectively.

Turning to `CN(C)c1nc(C(=O)N[C@@H](c2ccc(C(F)(F)F)c(F)c2)C2(C)CC2)cc(=O)[nH]1` [Example 42, 2-(dimethylamino)-N-[(R)-[3-fluoro-4-(trifluoromethyl)phenyl](1-methylcyclopropyl)methyl]-6-oxo-1,6-dihydropyrimidine-4-carboxamide], the Ki at Rhesus PDE2A3 (setting [2]) amounted to 0.45 nM; on human PDE2A1 (setting [3]), 0.44 nM. The efflux ratio at 1 μM on P-glycoprotein (P-gp) was 0.7; in series [1], 3.
